{"source": "patent US20140275257A1", "about": "“N-ACETYL CYSTEINE COMPOSITIONS IN THE TREATMENT OF SYSTEMIC LUPUS ERYTHEMATOSUS” (Foundation for the State University of New York, priority 2013, published 2014)", "key": {"GSH in whole blood": {"tested_on": "GSH in whole blood", "experiment": "HPLC assay of GSH in whole blood of SLE patients", "assay_type": "in vivo, human", "conditions": "after 1 and 2 months of NAC treatment", "experimental": "Reduced glutathione (GSH) was measured by reverse phase ion-exchange HPLC using UV detection at 365 nm, as described in Gergely, P. J. et al., “Mitochondrial hyperpolarization and ATP depletion in patients with systemic lupus erythematosus,” Arth. Rheum., 46: 175-190 (2002); and Hanczko, R. et al., “Prevention of hepatocarcinogenesis and acetaminophen-induced liver failure in transaldolase-deficient mice by N-acetylcysteine,” J. Clin. Invest., 119: 1546-1557 (2009). The disclosures of each of these references are incorporated by reference herein in their entirety.\nGSH was measured in whole blood and peripheral blood lymphocytes (PBL) before (visit 1; 0 h) and after the first NAC/placebo dose (visit 1; 3 h and 6 h) and upon each monthly follow-up visit (visits 2-4: between 9-11 am after having taken the last NAC/placebo capsule 8 pm the night before), and after 1 month wash-out (visit 5). HPLC analysis required ˜0.25 ml of whole blood and 5×10^6 PBL which were obtained from a total of 10 ml of blood collected at each time point."}, "mTOR": {"molecular_target": "mTOR (Homo sapiens, UniProt P42345)", "conditions": "O'Loghlen et al. (2006); cited from earlier work"}, "SLE patients": {"tested_on": "SLE patients", "experiment": "Fatigue Assessment Scale (FAS) in NAC pilot study", "assay_type": "in vivo, human", "conditions": "for FAS: all NAC doses combined, visit 1 28.5", "from_the_text": "Fatigue, a nonspecific symptom that is highly prevalent among patients in primary care, is not only an important component of many diseases or disorders, including SLE, but can also play a substantial role in healthy populations. Fatigue is considered the most disabling symptom in a majority of SLE patients. (Krupp, L. B. et al., “A study of fatigue in systemic lupus erythematosus,” J. Rheumatol., 17: 1450-1452 (1990)). The Fatigue Assessment Scale (FAS) is a 10-item unidimensional subjective fatigue scale that measures chronic fatigue. For each statement, one chooses one out of five answer categories varying from “never” to “always: 1=never; 2=sometimes; 3=regularly; 4=often; and 5=always. (Michielsen, H. J. et al., “Psychometric qualities of a brief self-rated fatigue measure: The Fatigue Assessment Scale,” Journal of Psychosomatic Research, 54: 345-352 (2003)).\nFatigue was assessed by using a validated Fatigue Assessment Scale (FAS), a self-questionnaire that provides a subjective measurement of fatigue severity and has shown to have a high degree of internal consistency, validity, and sensitivity to changes in clinical condition, as described in Michielsen, H. J. et al., “Psychometric qualities of a brief self-rated fatigue measure: The Fatigue Assessment Scale,” J. Psychosom. Res., 54(4): 345-352 (2003), the entire content of which is incorporated by reference herein.\nLupus disease activity was measured by SLEDAI and BILAG and fatigue was evaluated by FAC at baseline (visit 1) as well as monthly during a 3-month intervention (visits 2-4) and after a 1-month washout period (visit 5)."}, "DN T cells": {"tested_on": "DN T cells", "experiment": "Spontaneous and CD3/CD28-induced apoptosis of T cells (annexin V/PrI flow cytometry)", "assay_type": "in vivo, human", "conditions": "NAC-treated patients; for CD3/CD28-induced apoptosis: baseline 16.0±1.6%", "from_the_text": "Cell viability was monitored with annexin V conjugated to fluorescein isothiocyanate (annexin V-FITC conjugate), annexin V conjugated to phycoerythrin (annexin V-PE conjugate), or annexin V conjugated to fluorochrome Cy5 (Annexin V-Cy5 conjugate) matched with emission spectra of propidium iodide (PrI) to detect Annexin V+/PrI− apoptotic cells. Mitochondrial transmembrane potential (ΔΨm) was monitored with mitochondrial potentiometric dyes such as 3,3′-dihexyloxacarbocyanine iodide ((DiOC6), using an excitation wavelength of […] and emission at 488 nm, recorded at 525 nm in the FL-1 (green fluorescence) channel); and tetramethylrhodamine, methyl ester ((TMRM), using an excitation wavelength of […], and emission at 543 nm, recorded at 567 nm in the FL-2 (yellow/orange fluorescence) channel), potential-insensitive mitochondrial dyes such as MitoTracker Green-FM (MTG, 100 nM; excitation: 490 nm, emission: 516 nm recorded in FL-1) or nonyl acridine orange (NAO, 50 nM; excitation: 490 nm, emission: 540 nm recorded in FL-1), superoxide sensing hydroethidine (HE, 1 μM) and H2O2-sensing dichlorofluorescein diacetate (DCF-DA, 1 μM), nitric oxide sensor 4-amino-5-methylamino-2′,7′-difluoroflourescein diacetate (DAF-FM, 1 μM, excitation: 495, emission: 515 nm recorded in FL-1), or cytosolic probes (Fluo-3, 1 μM, excitation: 506 nm, emission: 526 nm recorded in FL-1) and mitochondrial Ca^2+-sensitive fluorescent probes (Rhod-2, 1 μM), respectively.\nNO production (FIG. 3D: DAF-FM fluorescence), and mitochondrial mass were measured in T cell subsets following CD3/CD28 stimulation for 16 h (FIG. 3E: NAO fluorescence). FIG. 3F: Spontaneous apoptosis rate was enumerated by the percentage of Ann V+/PrI− T cells after culture for 16 h. FIG. 3G: Activation-induced apoptosis was assessed following CD3/CD28 co-stimulation for 16 h. Visits: visit 1, before 1st NAC dose; visit 2, after 1-month treatment; visit 3, after 2-month treatment; visit 4, after 3-month treatment; visit 5, after 1-month washout.\nUnstimulated cells and cells stimulated with CD3/CD28 for 16 h were examined and cell death pathway selection in T cells was measured by concurrent staining with annexin V-Alexa 647 and propidium iodide (PrI) as well as cell type-specific antigens. T-cell subsets were analyzed by staining with antibodies to CD4, CD8, and CD25. B cells were identified by CD 19 staining"}, "[1]": {"conditions": "Noszal et al. (2000); cited from earlier work"}}}
{"smiles": "CC(=O)N[C@@H](CS)C(=O)O", "note": "[NAC, N-acetyl-L-cysteine]", "values": [{"measurement": "GSH in whole blood", "setting": "GSH in whole blood", "result": "increased"}, {"measurement": "effect on mTOR in vitro", "setting": "mTOR", "result": "inhibits"}, {"measurement": "effect on SLE disease activity, FAS", "setting": "SLE patients; NAC dose 1 (1.2 g/day)", "result": "did not influence"}, {"measurement": "effect on FAS", "setting": "SLE patients; NAC dose 2 (2.4 g/day) and dose 3 (4.8 g/day), after 2 months (p=0.002) and 3 months (p=0.004)", "result": "reduced"}, {"measurement": "effect on FAS relative to placebo (mixed model analysis)", "setting": "SLE patients; NAC dosing group 2, XTMIXED z=−2.08, p=0.038", "result": "reduction"}, {"measurement": "FAS", "setting": "SLE patients; visit 3 (2 months), p=0.0006", "result": 24.1}, {"measurement": "FAS", "setting": "SLE patients; visit 4 (3 months), p=0.005", "result": 23.9}, {"measurement": "FAS", "setting": "SLE patients; visit 5 (after 1 month washout), p=0.034", "result": 24.8}, {"measurement": "CD3/CD28-induced apoptosis", "setting": "DN T cells; after 2 months, p=0.0006", "result": "25.4±2.6", "unit": "%"}, {"measurement": "CD3/CD28-induced apoptosis", "setting": "DN T cells; after 3 months, p=0.0004", "result": "23.5±2.1", "unit": "%"}, {"measurement": "Spontaneous apoptosis rate of DN T cells", "setting": "DN T cells; after 4 months, baseline 10.1±1.3%, p=0.035", "result": "15.2±2.3", "unit": "%"}, {"measurement": "CD3/CD28-induced apoptosis", "setting": "DN T cells; after 4 months, p=0.0313", "result": "22.7±2.6", "unit": "%"}, {"measurement": "half-cell potential, NAC thiol/disulfide pair", "setting": "[1]", "result": "about +63 mV"}]}
